For this test, the system named is P388 leukemia ip, CD2F1 mice, survival T/C. Put plainly: NCI In Vivo Anticancer Drug Screen. Data for tumor model P388 Leukemia (intraperitoneal) in CD2F1 (CDF1) mice. Conditions: endpoint: median survival time, higher = longer survival. The procedure, abridged:
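Mice carrying the transplanted tumor received test compound or vehicle. Survival was recorded in each group, and the value is the treated-group measurement divided by that of the vehicle-treated control group.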

Where [1] appears, read: dose: 60.0 mg/kg/injection, schedule: Q01DX005 (ip), vehicle: saline with Tween-80.
Setting [2] is: dose: 120.0 mg/kg/injection, schedule: Q01DX005 (ip), vehicle: saline with Tween-80.
[3] abbreviates: dose: 100.0 mg/kg/injection, schedule: Q04DX002 (ip), vehicle: saline with Tween-80.
Where [4] appears, read: dose: 200.0 mg/kg/injection, schedule: Q04DX002 (ip), vehicle: saline with Tween-80.
[5] abbreviates: dose: 400.0 mg/kg/injection, schedule: Q04DX002 (ip), vehicle: saline with Tween-80.
Setting [6] is: dose: 50.0 mg/kg/injection, schedule: Q01DX005 (ip), vehicle: saline with Tween-80.
[7] abbreviates: dose: 100.0 mg/kg/injection, schedule: Q01DX005 (ip), vehicle: saline with Tween-80.
[8] abbreviates: dose: 60.0 mg/kg/injection, schedule: Q01DX005 (ip), vehicle: Klucel (hydroxypropylcellulose) (HPC).
The mark [9] stands for this setting: dose: 120.0 mg/kg/injection, schedule: Q01DX005 (ip), vehicle: Klucel (hydroxypropylcellulose) (HPC).
The mark [10] stands for this setting: dose: 240.0 mg/kg/injection, schedule: Q01DX005 (ip), vehicle: saline with Tween-80.

T/C data for 22 molecules are collected here from PubChem BioAssay AID330 (DTP/NCI, 2004).

Values joined by “and” are separate entries in the source; they are usually repeats but may differ in a detail not shown here. Equal entries are not always repeated. Inconclusive results and toxic doses are left out. Peptide text beside a SMILES is read from it. * marks the point of attachment. Cbz = O=C(OCc1ccccc1)*; OBn = c1ccc(CO*)cc1

In the case of `Cc1nc2cc3c(cc2n2cccc12)oc1ccccc13`, the T/C by setting is: (dose: 25.0 mg/kg/injection, schedule: Q01DX005 (ip), vehicle: Klucel (hydroxypropylcellulose) (HPC)) 88 % of control; (dose: 50.0 mg/kg/injection, schedule: Q01DX005 (ip), vehicle: Klucel (hydroxypropylcellulose) (HPC)) 96 % of control; (dose: 100.0 mg/kg/injection, schedule: Q01DX005 (ip), vehicle: Klucel (hydroxypropylcellulose) (HPC)) 86 % of control.
As to `CN(C)CCCC1(O)c2ccccc2Sc2cc(Cl)ccc21` (stereo unspecified), the T/C was 100 % of control under setting [1] and 96 % of control under setting [2].
Consider `c1ccc2c(c1)C1OC2c2cnccc21` (stereo unspecified), for which the T/C is, setting by setting: under setting [3], 95 % of control; under setting [4], 96 % of control; under setting [5], 93 % of control.
As for `O=C(O)C1CCCN1C(=O)c1ccc(Cl)cc1` (stereo unspecified), the T/C by setting is: (dose: 12.5 mg/kg/injection, schedule: Q01DX005 (ip), vehicle: distilled water + Tween-80) 99 % of control; (dose: 25.0 mg/kg/injection, schedule: Q01DX005 (ip), vehicle: distilled water + Tween-80) 101 % of control; (dose: 50.0 mg/kg/injection, schedule: Q01DX005 (ip), vehicle: distilled water + Tween-80) 97 % of control; (dose: 100.0 mg/kg/injection, schedule: Q01DX005 (ip), vehicle: distilled water + Tween-80) 100 % of control; (dose: 200.0 mg/kg/injection, schedule: Q01DX005 (ip), vehicle: distilled water + Tween-80) 104 % of control.
`CCC1(c2ccc(-c3ccccc3)cc2)OC(OC(=O)NC)C=CC1=O` (stereo unspecified): under “dose: 6.25 mg/kg/injection, schedule: Q01DX009 (ip), vehicle: Klucel (hydroxypropylcellulose) (HPC)”, the T/C was 98 % of control.
With `CC(C)C(NC(=O)C(CCCCNC(=O)OCc1ccccc1)NC(=O)OCc1ccccc1)C(=O)OCc1ccccc1` (stereo unspecified) (Cbz-Lys(Cbz)-Val-OBn; configuration not given here), the T/C is, setting by setting: under setting [6], 89 % of control; under setting [7], 91 % of control; (dose: 200.0 mg/kg/injection, schedule: Q01DX005 (ip), vehicle: saline with Tween-80) 103 % of control.
Consider `CCc1cccc(C)c1NC(=O)C(=O)C(C#N)c1ccc(CC#N)cc1` (stereo unspecified), for which the T/C is, setting by setting: under setting [1], 101 % of control; under setting [2], 100 % of control.
In the case of `CC(C)C[NH-].CC(C)C[NH-].O.O.[Cl][Pt+2][Cl]`, the T/C (dose: 11.0 mg/kg/injection, schedule: Q01DX009 (ip), vehicle: saline with Tween-80) was 167 % of control; the T/C (dose: 12.5 mg/kg/injection, schedule: Q01DX009 (ip), vehicle: other) is 181 % of control; the T/C (dose: 16.5 mg/kg/injection, schedule: Q01DX009 (ip), vehicle: saline with Tween-80) was 180 % of control; the T/C (dose: 25.0 mg/kg/injection, schedule: Q01DX009 (ip), vehicle: other) was 200 % of control; the T/C (dose: 25.0 mg/kg/injection, schedule: Q01DX009 (ip), vehicle: saline with Tween-80) is 218 % of control.
Take `Cc1c2ccn(Cc3ccccc3)cc2c(C)c2c1nc1ccccc12`: the T/C (dose: 19.25 mg/kg/injection, schedule: Q04DX002 (ip), vehicle: saline with Tween-80) is 121 % of control and the T/C (dose: 38.5 mg/kg/injection, schedule: Q04DX002 (ip), vehicle: saline with Tween-80) is 113 % of control.
As to `C/C(=N\N)c1cnc(N)nc1C`, the T/C (dose: 60.0 mg/kg/injection, schedule: Q01DX005 (ip), vehicle: saline) was 101 % of control; the T/C (dose: 120.0 mg/kg/injection, schedule: Q01DX005 (ip), vehicle: saline) was 107 % of control; the T/C (dose: 240.0 mg/kg/injection, schedule: Q01DX005 (ip), vehicle: saline) is 100 % of control.
`CCCCC/C=C/C(=O)OC`: the T/C reads like this: under setting [3], 100 % of control; under setting [4], 100 % of control; under setting [5], 100 % of control.
Consider `COC(=O)c1nc(N)nc(C(=O)OC)c1C(=O)c1ccco1`, for which the T/C was 101 % of control under setting [8] and 103 % of control under setting [9].
Turning to `CC(C)(C)SC(=O)C1(C(OC(=O)c2ccccc2)c2ccccc2)CC1` (stereo unspecified), the T/C was 96 % of control (dose: 100.0 mg/kg/injection, schedule: Q04DX003 (ip), vehicle: Klucel (hydroxypropylcellulose) (HPC)); 100 % of control (dose: 200.0 mg/kg/injection, schedule: Q04DX003 (ip), vehicle: Klucel (hydroxypropylcellulose) (HPC)); 89 % of control (dose: 400.0 mg/kg/injection, schedule: Q04DX003 (ip), vehicle: Klucel (hydroxypropylcellulose) (HPC)).
In the case of `COc1nc(NC2OC(COC(C)=O)C(OC(C)=O)C(OC(C)=O)C2OC(C)=O)c(N=C(C)C(C)=O)c(=O)n1C` (stereo unspecified), the T/C is, setting by setting: under setting [1], 99 % of control; under setting [2], 95 % of control; under setting [10], 95 % of control.
With `COC(=O)C(O)(C(=O)OC)C1=C(N)C(=O)c2ccccc2C1=O`, the T/C by setting is: (dose: 50.0 mg/kg/injection, schedule: Q01DX005 (ip), vehicle: saline) 111 % of control; (dose: 100.0 mg/kg/injection, schedule: Q01DX005 (ip), vehicle: saline) 123 % of control.
As to `CSc1nccc(=O)n1-c1ccc(C)cc1`, the T/C was 102 % of control under setting [3], 102 % of control under setting [4] and 98 % of control under setting [5].
Take `CCOC(=O)N1C=CC2Oc3c(Cl)c(Cl)c(Cl)c(Cl)c3OC2C=N1` (stereo unspecified): the T/C was 102 % of control under setting [8]; 101 % of control under setting [9]; 101 % of control (dose: 240.0 mg/kg/injection, schedule: Q01DX005 (ip), vehicle: Klucel (hydroxypropylcellulose) (HPC)).
`COc1cc(C(C)c2cc3c(cc2O)OCO3)cc(OC)c1OC` (stereo unspecified): the T/C by setting is: (dose: 15.0 mg/kg/injection, schedule: Q01DX005 (ip), vehicle: saline with Tween-80) 100 % of control; (dose: 30.0 mg/kg/injection, schedule: Q01DX005 (ip), vehicle: saline with Tween-80) 98 % of control; under setting [1], 103 % of control and 107 % of control and 108 % of control; under setting [2], 100 % of control and 114 % of control and 122 % of control; under setting [10], 123 % of control; (dose: 480.0 mg/kg/injection, schedule: Q01DX005 (ip), vehicle: saline with Tween-80) 86 % of control.
For `O=C(c1ccc([N+](=O)[O-])cc1)N1CCCSC1=S`, the T/C under setting [1] is 107 % of control, the T/C under setting [2] was 98 % of control and the T/C under setting [10] was 101 % of control.
Regarding `CCN(CC)CCNC1CC2CCC1(C)C2(C)C` (stereo unspecified), the T/C reads like this: (dose: 25.0 mg/kg/injection, schedule: Q01DX005 (ip), vehicle: saline with Tween-80) 98 % of control; under setting [6], 91 % of control; under setting [7], 89 % of control.
In the case of `Cc1ccc(NC2OC(CO)C(O)C2O)c([N+](=O)[O-])c1` (stereo unspecified), the T/C runs as follows: (dose: 100.0 mg/kg/injection, schedule: Q01DX001 (ip), vehicle: saline) 108 % of control; (dose: 200.0 mg/kg/injection, schedule: Q01DX001 (ip), vehicle: saline) 97 % of control; (dose: 400.0 mg/kg/injection, schedule: Q01DX001 (ip), vehicle: saline) 99 % of control.
Regarding `CCOC(=O)NOC1CCCCO1` (stereo unspecified), the T/C by setting is: (dose: 50.0 mg/kg/injection, schedule: Q01DX009 (ip), vehicle: saline) 91 % of control; (dose: 100.0 mg/kg/injection, schedule: Q01DX009 (ip), vehicle: saline) 105 % of control; (dose: 200.0 mg/kg/injection, schedule: Q01DX009 (ip), vehicle: saline) 104 % of control.
